Assay results published in patent publication US20040248958A1, “Heterocyclic amide derivatives” (priority 2001, published 2004).
Read-outs that look alike come from different tables or passages of the source.

Test: logP determination by HPLC on reversed-phase column (EEC Directive 79/831 Annex V.A8)
Assay type: physicochemical
Conditions: reversed-phase HPLC column (C18), preparation examples
Protocol: The logP values indicated were determined in accordance with EEC Directive 79/831 Annex V.A8 by means of HPLC (High Performance Liquid Chromatography) on a reversed-phase column (C 18). Temperature: 43° C. (a) Eluents for determination in the acidic range: 0.1% aqueous phosphoric acid, acetonitriie; linear gradient from 10% acetonitrile to 90% acetonitrile. (b) Eluents for determination in the neutral range: 0.01 molar aqueous phosphate buffer solution, acetonitrile; linear gradient from 10% acetonitrile to 90% acetonitrile.

[1] = pH 2.3, HPLC C18, 43° C., read-out: logP (pH 2.3)

| chromatographic logP (pH 7.5, HPLC C18, 43° C., read-out: logP (pH 7.5)) | chromatographic logP [1] | Compound |
| --- | --- | --- |
| 2.17 |  | Cc1ccc(C(=O)Nn2c(-c3ccccc3)nc(C)c2C)cc1 [Example I-2] |
|  | 0.96 | Cc1cc(C)cc(-c2nc(C)c(C)n2N)c1 [II-1] |
|  | 1.69 | Cc1ccc(S(=O)(=O)Nn2c(-c3cc(C)cc(C)c3)nc(C)c2C)cc1 [IV-1] |
|  | 1.97 | CCc1ccc(C(=O)Nn2c(-c3cc(C)cc(C)c3)nc(C)c2C)cc1 [Example I-1] |
